# Results: ChEMBL document CHEMBL1128790, “Putative atypical antipsychotics with mixed dopaminergic (D1, D2) and serotonergic (5HT2) activity: The design evolution of ZD3638” (1995)
# Activity calls are given as the source filed them. The rule behind the calls is not given here.
# Columns and labels:
# [1] = target: D(2) dopamine receptor (Homo sapiens) (UniProt P14416); assay: Dopamine D2 (spiroperidol) receptor binding affinity
# [2] = target: D(1A) dopamine receptor (Homo sapiens) (UniProt P21728); assay: Compound was tested for dopamine D1 (SCH-23390) receptor binding affinity, at 1000 nM concentration
# [3] = (§1) Compound was tested for functional dopamine antagonism in normalization assay (i.e. AS: reversal of apomorphine induced swimming ED50s in mg/kg orally); details: po
# [4] = target: Serotonin 2 (5-HT2) receptor (Homo sapiens) (UniProt P41595+P28223+P28335)
# Description: 5-hydroxytryptamine 2 receptor binding affinity
# [5] = target: D(1A) dopamine receptor (Homo sapiens) (UniProt P21728)
# Description: Dopamine D1 (SCH-23390) receptor binding affinity
# [6] = target: D(2) dopamine receptor (Homo sapiens) (UniProt P14416); assay: Compound was tested for dopamine D2 (spiroperidol) receptor binding affinity at 2500 nM concentration
# [7] = target: D(1A) dopamine receptor (Homo sapiens) (UniProt P21728); assay: Compound was tested for dopamine D1 (SCH-23390) receptor binding affinity, at 2500 nM concentration
# Rattus norvegicus = assay: as §1; details: po
# [8] = target: D(2) dopamine receptor (Homo sapiens) (UniProt P14416); assay: Compound was tested for dopamine D2 (spiroperidol) receptor binding affinity; Not active
# [9] = target: D(1A) dopamine receptor (Homo sapiens) (UniProt P21728); assay: Compound was tested for dopamine D1 (SCH-23390) receptor binding affinity; Not active
# [10] = target: D(2) dopamine receptor (Homo sapiens) (UniProt P14416); assay: Compound was tested for dopamine D2 (spiroperidol) receptor binding affinity, at 5000 nM concentration
# Sequence of Serotonin 2 (5-HT2) receptor (Homo sapiens) (P28223 whole entry, looked up): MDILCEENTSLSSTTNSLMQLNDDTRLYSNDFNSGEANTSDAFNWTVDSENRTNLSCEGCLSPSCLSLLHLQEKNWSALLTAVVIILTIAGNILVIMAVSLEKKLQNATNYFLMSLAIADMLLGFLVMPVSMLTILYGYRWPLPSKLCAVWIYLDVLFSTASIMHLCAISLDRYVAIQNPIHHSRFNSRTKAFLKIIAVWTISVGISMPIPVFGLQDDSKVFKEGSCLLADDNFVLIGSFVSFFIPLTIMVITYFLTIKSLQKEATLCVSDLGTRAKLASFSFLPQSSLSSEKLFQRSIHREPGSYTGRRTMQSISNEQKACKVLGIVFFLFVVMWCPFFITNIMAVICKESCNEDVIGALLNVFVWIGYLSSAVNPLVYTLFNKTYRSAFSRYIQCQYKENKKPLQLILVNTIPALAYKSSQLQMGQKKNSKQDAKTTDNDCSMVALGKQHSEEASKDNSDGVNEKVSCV
# Sequence of Serotonin 2 (5-HT2) receptor (Homo sapiens) (P28335 whole entry, looked up): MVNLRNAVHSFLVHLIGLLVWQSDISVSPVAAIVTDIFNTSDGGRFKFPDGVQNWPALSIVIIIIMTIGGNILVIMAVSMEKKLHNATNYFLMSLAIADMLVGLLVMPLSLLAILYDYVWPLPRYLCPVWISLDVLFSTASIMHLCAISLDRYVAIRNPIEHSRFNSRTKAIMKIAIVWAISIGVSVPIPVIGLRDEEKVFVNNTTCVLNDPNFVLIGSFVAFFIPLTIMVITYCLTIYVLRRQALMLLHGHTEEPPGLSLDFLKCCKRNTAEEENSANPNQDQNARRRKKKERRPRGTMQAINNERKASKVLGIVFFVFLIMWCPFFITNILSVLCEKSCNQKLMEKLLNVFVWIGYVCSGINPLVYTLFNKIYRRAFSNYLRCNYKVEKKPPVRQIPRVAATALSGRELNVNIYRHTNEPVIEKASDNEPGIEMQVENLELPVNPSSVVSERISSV
# Sequence of Serotonin 2 (5-HT2) receptor (Homo sapiens) (P41595 whole entry, looked up): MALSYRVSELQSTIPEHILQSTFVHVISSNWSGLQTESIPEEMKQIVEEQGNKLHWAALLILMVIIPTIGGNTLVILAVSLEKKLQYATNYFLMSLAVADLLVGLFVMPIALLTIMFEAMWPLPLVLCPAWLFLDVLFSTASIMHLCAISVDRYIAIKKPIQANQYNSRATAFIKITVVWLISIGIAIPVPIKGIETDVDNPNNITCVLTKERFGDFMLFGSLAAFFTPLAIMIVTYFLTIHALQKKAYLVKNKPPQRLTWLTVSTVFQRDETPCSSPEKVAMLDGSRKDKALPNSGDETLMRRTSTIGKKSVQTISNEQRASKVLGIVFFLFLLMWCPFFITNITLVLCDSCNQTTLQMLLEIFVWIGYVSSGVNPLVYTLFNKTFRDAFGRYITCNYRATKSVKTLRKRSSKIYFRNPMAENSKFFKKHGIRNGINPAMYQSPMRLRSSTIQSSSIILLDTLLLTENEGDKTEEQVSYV
# Sequence of D(2) dopamine receptor (Homo sapiens) (P14416 whole entry): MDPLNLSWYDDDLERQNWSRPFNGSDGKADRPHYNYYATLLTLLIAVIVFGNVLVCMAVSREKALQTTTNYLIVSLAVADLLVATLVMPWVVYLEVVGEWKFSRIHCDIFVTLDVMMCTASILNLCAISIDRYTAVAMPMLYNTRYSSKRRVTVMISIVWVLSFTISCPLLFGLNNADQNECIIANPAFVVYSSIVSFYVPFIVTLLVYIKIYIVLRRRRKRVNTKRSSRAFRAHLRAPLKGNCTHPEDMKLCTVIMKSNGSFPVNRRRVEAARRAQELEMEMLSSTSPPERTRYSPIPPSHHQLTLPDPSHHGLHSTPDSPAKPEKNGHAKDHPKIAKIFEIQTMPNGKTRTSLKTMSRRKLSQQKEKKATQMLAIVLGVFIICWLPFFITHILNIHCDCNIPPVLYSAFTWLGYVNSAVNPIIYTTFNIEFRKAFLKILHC
# Sequence of D(1A) dopamine receptor (Homo sapiens) (P21728 whole entry): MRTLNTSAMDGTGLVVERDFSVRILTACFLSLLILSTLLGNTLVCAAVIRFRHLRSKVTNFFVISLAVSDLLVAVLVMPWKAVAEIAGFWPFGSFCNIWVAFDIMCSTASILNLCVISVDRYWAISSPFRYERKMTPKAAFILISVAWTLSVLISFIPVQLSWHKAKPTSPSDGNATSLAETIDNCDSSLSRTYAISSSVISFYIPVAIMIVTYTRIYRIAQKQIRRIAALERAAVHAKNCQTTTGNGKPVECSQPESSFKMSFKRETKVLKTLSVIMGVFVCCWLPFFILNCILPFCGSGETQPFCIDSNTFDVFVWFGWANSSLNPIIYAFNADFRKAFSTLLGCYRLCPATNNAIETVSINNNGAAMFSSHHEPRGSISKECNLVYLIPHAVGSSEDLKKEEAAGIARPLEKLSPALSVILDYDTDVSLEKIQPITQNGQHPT
SMILES,Binding affinity [1] [nM],Binding affinity [4] [nM],Binding affinity [5] [nM],ED50 [3] [mg/kg],also measured
c1cnc(NCCCNCC23CC(c4ccccc42)c2ccccc23)nc1,265,227,132,> 80,–
C[C@@H]1CN(CCCNCC23CC(c4ccccc42)c2ccccc23)C[C@@H](C)O1,36,11,60,> 80,–
CN1CCN(C2=Nc3cc(Cl)ccc3Nc3ccccc32)CC1 [CLOZAPINE],–,–,–,–,ED50 (Rattus norvegicus): 40 mg/kg
NCC12CC(c3ccccc31)c1ccccc12,–,–,–,> 80,Binding affinity [8]: inactive; Binding affinity [9]: inactive
c1ccc(Cn2cncc2CCNCC23CC(c4ccccc42)c2ccccc23)cc1,101,84,610,80,–
CN1CCN(C(=O)C23CC(c4ccccc42)c2ccccc23)CC1,–,–,–,> 80,inhibition [10]: 0%

# More lines, main results first:
Binding affinity [1] [nM],Binding affinity [4] [nM],Binding affinity [5] [nM],SMILES,ED50 [3] [mg/kg],also measured
57,–,–,c1ccc2c(c1)C1CC2(CN2CCC(N3CCOCC3)CC2)c2ccccc21,10,inhibition [2]: 17%
42,39,13,CC[S+]([O-])c1ncccc1C1(O)CCN(CC23CC(c4ccccc42)c2ccccc23)CC1 (centres undefined),0.6,–
–,314,–,CN1CCN(CC23CC(c4ccccc42)c2ccccc23)CC1,> 80,inhibition [6]: 18%; inhibition [7]: 14%
49,2,351,Clc1ccc2c(c1)C1(CN3CCC(Nc4ncccn4)CC3)CC2c2ccccc21 (centres undefined),5,–
222,21,349,c1ccc2c(c1)C1CC2(CNCCCN2CCOCC2)c2ccccc21,> 80,–
25,40,76,CCOC(OCC)C(=O)NC1CCN(CC23CC(c4ccccc42)c2ccc(Cl)cc23)CC1 (centres undefined),2.5,–
14,4,63,O[C@@H](c1cccnc1)C1CCN(CC23CC(c4ccccc42)c2ccc(Cl)cc23)CC1 (some centres undefined),5,–
5,1,7,CC(C)(C)C1(O)CCN(CC23CC(c4ccccc42)c2ccc(Cl)cc23)CC1 (centres undefined),0.6,–
